The subject of one experiment is VEGF. As to conditions: with chemotherapy; patients with colorectal, breast, and lung cancers; cited from earlier work.
The test system of another experiment is MDA MB 468 cells. As to the kind of experiment: COPIA per-cell RTK activation in growth factor stimulated MDA-MB-468 cells. As to conditions: MDA MB 468 cells stimulated with EGF. Format: cell-based, human. As to the method: (§1) SKBr3, MDA-MB-468, T47D and BT474 cell lines were obtained from ATCC. Cells were grown in the following growth media in 100 mm tissue culture plates at 37° C. in 5% CO2: SKBr3 McCoy's 5A medium with 10% FBS, MDA-MB-468: DMEM, 10% FBS, BT474: DMEM, 10B FBS, T47D: RPMI 1640, 10% FBS, 0.2 U/ml bovine insulin. Cells were harvested at 70-80% confluency with gentle detachment process (trypsin treatment+subsequent inactivation) and were subsequently counted and washed with 1×PBS. Cell stimulation was performed with 100 uM EGF or 20 uM heregulin β or both in serum-free growth media for 5 min. Stimulated cells were washed with 1×PBS and then were lysed (lysis buffer: 50 mM Tris, pH 7.4, 150 mM NaCl, 1% Trition X-100 and 200 mM Na3VO4) and kept on ice for 30 min.
(§2) Slides were first rinsed two times with TBST (50 mM Tris/150 mM NaCl/0.1% Tween-20, pH 7.2-7.4) before blocking them with 80 ul of Whatman Blocking Buffer 1 hr at RT or O/N at 4 C. After the blocking process, slides were washed 2 times with TBST. […]

The test system of the next experiment is T47D cells. The experiment is described as follows: COPIA RTK activation in growth factor stimulated T47D cells. It is filed as cell-based, human. As to conditions: T47D cells stimulated with EGF or HRG. Here is the method:
as §1, §2

In experiment [1] the test system is ER-positive breast cancer. As to conditions: cited from earlier work.

VEGF, sequence (P15692 207-311 limits assumed): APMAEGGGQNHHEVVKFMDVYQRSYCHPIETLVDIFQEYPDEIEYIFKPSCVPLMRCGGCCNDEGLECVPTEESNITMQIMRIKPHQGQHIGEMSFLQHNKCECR

With Bevacizumab, the survival entry with VEGF is reported as “improve survival”.

“EGF: epidermal growth factor, stimulatory growth factor used to induce HER1 phosphorylation (NSDSECPLSHDGYCLHDGVCMYIEALDKYACNCVVGYIGERCQYRDLKWWELR; Epidermal growth factor; UniProt P01133 971-1023, looked up)”: in the experiment with MDA MB 468 cells, the “level of pHER1 per cell” value was 992.5 RFU/cell. Besides, in the experiment with T47D cells, the HER1 activation result was “resulted in both HER1 and HER2 activation”; the HER2 activation result is “resulted in both HER1 and HER2 activation”.

For `CC/C(=C(\c1ccccc1)c1ccc(OCCN(C)C)cc1)c1ccccc1` [Tamoxifen], in experiment [1] (adjuvant therapy studies), the “reduction in the odds of recurrence and mortality” value is given as 40% to 50%. Also, the “patients with temporary remission” value in experiment [1] (patients with metastatic disease) is on record as 30% to 50%.

Source of the values: patent US9726669B2, “Biomarkers for determining sensitivity of breast cancer cells to HER2-targeted therapy” (PIERIAN HOLDINGS, INC., priority 2009, dated 2017).
